According to patent US6531464B1, “Methods for the treatment of neurodegenerative disorders using substituted phenanthridinone derivatives” (Inotek Pharmaceutical Corporation, priority 1999, dated 2003):

Key:
MIP-2 = test: LPS-stimulated J774 macrophages: MIP-2 production; format: cell-based
From the text: In in vitro studies, J774 macrophages were exposed to bacterial lipopolysaccharide (LPS), to induce pro-inflammatory mediator production and cytotoxicity. […] This assay (the LPS-stimulated macrophage) represents an in vitro model of an inflammatory situation. Agents that block inflammatory mediator production in this assay are expected to have anti-inflammatory or immunosuppressive effects in inflammatory or immune diseases.
(§1) The half-maximal inhibitory effect (in μM) of various PJ compounds was assessed under a variety of conditions in immunostimulated J774 macrophages and in peroxynitrite-stimulated thymocytes. Macrophages or thymocytes were first treated with a chosen PJ compound for 30 min at a concentration ranging from 0.1 to 30 μM. The cells were then immunostimulated with LPS (10 μg/ml) or treated with peroxynitrite (30 μM). MIP production in the macrophages was measured at 3 h, TNF and nitric oxide were measured at 24 h, cell viability in the macrophages were measured at 24 h. PARS activation and cell death in thymocytes were measured at 6 h. Measurements of mediator production, PARS activation and cell death were essentially as described in Németh, et al., Eur J Pharmacol 339:215-221, 1997 and Virág and Szabó, Br J Pharmacol, 126: 769-777, 1999. Results in Table 2 are shown as EC50 values (half maximal inhibition of mediator production or restoration of cell viability; in μM): [mean±SEM of n=3-6 determinations].

thymocytes = test: Peroxynitrite-stimulated thymocytes: cell viability; format: cell-based
Protocol: as §1

anesthetized rat = test: Coronary artery ligation and release (myocardial reperfusion injury) in anesthetized rat; format: in vivo; parameters: dose or concentration left out as unconfirmed; conditions: 1-hour coronary ischemia, 1 hour reperfusion, i.v. 10 min prior to reperfusion
Lewis rats = test: Heterotopic heart transplantation: coronary blood flow and myocardial performance; format: in vivo, rat; conditions: 3 mg/kg i.v.
SJL/PLJ mice = test: Experimental allergic encephalomyelitis (EAE) induced by MBP immunization; format: in vivo, mouse
Protocol: The studies were performed according to standard methods. See, e.g., Hooper et al., Proc Natl Acad Sci U S A 95:675-680, 1998. Briefly, EAE was caused by immunization of 8-10 week old female SJL/PLJ mice with MBP (in complete Freund's adjuvant containing 0.05% M Butyricum plus an additional 4 mg/ml Mycobacterium Tuberculosis H37 RA, one […] subcutaneous dose plus 2 doses of 400 ng pertussis toxin, intra-peritoneal, on days 0 and 2). The grading system shown in Table 5 was used to evaluate the severity of the disease.

[1] = 10 mg/kg orally 2 times daily from day 10

What does the source list for `CN(C)CC(=O)Nc1ccc2[nH]c(=O)c3ccccc3c2c1` [PJ34, N-(6-oxo-5,6-dihydro-phenanthridin-2-yl)-N,N-dimethylacetamide]?
production of the chemokine MIP-2 (in words) (MIP-2; J774 macrophages exposed to LPS): inhibited; EC50 (MIP-2; Mus musculus, J774, LPS 10 μg/ml, 30 min pretreatment 0.1 to 30 μM, measured at 3 h, mean±SEM n=3-6, read-out: Inhibition of MIP-2 (J774)): 7.2 ± 0.88 µM; EC50 (thymocytes; Thymocyte, peroxynitrite 30 μM, 30 min pretreatment 0.1 to 30 μM, measured at 6 h, mean±SEM n=3-6, read-out: Enhancement of cell viability (thymocyte)): 0.2 ± 0.1 µM; oxidant-induced suppression of the viability of the cells (in words) (thymocytes; isolated thymocytes exposed to peroxynitrite or hydrogen peroxide): prevented; reduction of plasma levels of creatine phosphokinase (CPK) (anesthetized rat): approx. 50%; myocardial infarct size (area of necrosis, over area of risk) (anesthetized rat; 62±1 without treatment): 50±3%; myocardial performance (in words) (Lewis rats; data not shown): markedly enhanced; Basal coronary bloodflow (Lewis rats; 1 h after transplant, vehicle 2.8 ± 0.3): 4.1 ± 0.4 mL/min; Acetylcholine stimulated coronary bloodflow (Lewis rats; 1 h after transplant, vehicle 3.5 ± 0.3): 6.5 ± 0.5 mL/min; Basal coronary bloodflow (Lewis rats; 24 h after transplant, vehicle 3.9 ± 0.3): 4.2 ± 0.2 mL/min; Acetylcholine stimulated coronary bloodflow (Lewis rats; 24 h after transplant, vehicle 6.1 ± 0.4): 8.2 ± 0.8 mL/min; mortality in EAE (in words) (SJL/PLJ mice; [1]): significant reduction; severity of EAE (in words) (SJL/PLJ mice; [1]): significant reduction; Percent mortality (SJL/PLJ mice; Day 10 after immunization, 10 mg/kg orally 2 times daily from day 10): 0%; Average Disease severity index (SJL/PLJ mice; Day 10 after immunization, 10 mg/kg orally 2 times daily from day 10, grading Table 5): 0; Average Disease severity index (SJL/PLJ mice; Day 11): 0; Percent mortality (SJL/PLJ mice; Day 11): 0%; Average Disease severity index (SJL/PLJ mice; Day 12): 0; Percent mortality (SJL/PLJ mice; Day 12): 0%; Average Disease severity index (SJL/PLJ mice; Day 13): 0; Percent mortality (SJL/PLJ mice; Day 13): 0%; Average Disease severity index (SJL/PLJ mice; Day 14): 0; Percent mortality (SJL/PLJ mice; Day 14): 0%; Average Disease severity index (SJL/PLJ mice; Day 15): 0; Percent mortality (SJL/PLJ mice; Day 15): 0%; Average Disease severity index (SJL/PLJ mice; Day 16): 4; Percent mortality (SJL/PLJ mice; Day 16): 0%; Average Disease severity index (SJL/PLJ mice; Day 17): 4; Percent mortality (SJL/PLJ mice; Day 17): 0%; Average Disease severity index (SJL/PLJ mice; Day 18): 4; Percent mortality (SJL/PLJ mice; Day 18): 0%; Average Disease severity index (SJL/PLJ mice; Day 19): 4; Percent mortality (SJL/PLJ mice; Day 19): 0%; Average Disease severity index (SJL/PLJ mice; Day 20): 3; Percent mortality (SJL/PLJ mice; Day 20): 0%
